This is an account of results in the Biogen ADME set (Fang et al. 2023).

≈ marks a conversion by molar mass, not a printed value. A value given as a limit tells only on which side of the number the result lay.

The conditions of this data set: for aqueous solubility: pH 6.8.

The term aqueous solubility denotes the concentration that dissolves in the medium under given conditions. High values mean a readily soluble substance, low ones a poorly soluble substance. In the case of `O=C(CCCc1ccc(F)cc1)N1CCN(c2ccccc2)C(=O)C1`, the MDR1-MDCK efflux ratio came to 0.896; the intrinsic clearance, human liver microsomes was not above 4.74 mL/min/kg; the intrinsic clearance, rat liver microsomes stood at 176 mL/min/kg; the aqueous solubility was 49.2 µg/mL (≈ 145 µM).

With `CNC(=O)Cc1noc(-c2ccc3ncccc3c2)n1`, the intrinsic clearance, human liver microsomes is not above 4.74 mL/min/kg and the intrinsic clearance, rat liver microsomes is 21.8 mL/min/kg.

Turning to `CC(C)c1nc2c(n1C)CCN(C(=O)c1cccc(C(F)(F)F)c1F)C2`, the MDR1-MDCK efflux ratio stood at 8.01; the intrinsic clearance, human liver microsomes was determined as 32.7 mL/min/kg; the intrinsic clearance, rat liver microsomes is 238 mL/min/kg; the aqueous solubility was found to be 60.8 µg/mL (≈ 165 µM).

For the compound `CC(C)c1nc(CCn2ccnc2-c2ccoc2)cs1`, the MDR1-MDCK efflux ratio is 0.661; the intrinsic clearance, human liver microsomes was 234 mL/min/kg; the intrinsic clearance, rat liver microsomes came out at 2160 mL/min/kg; the aqueous solubility was 29.2 µg/mL (≈ 102 µM).

On to `O=C(NC[C@H]1COCc2nc3ccccc3n21)c1ccncc1`, for which the MDR1-MDCK efflux ratio was 23.9; the intrinsic clearance, human liver microsomes turned out to be 18.9 mL/min/kg; the intrinsic clearance, rat liver microsomes turned out to be 131 mL/min/kg; the aqueous solubility came out at 52.1 µg/mL (≈ 169 µM).

Regarding `O=C(NCCN1CCc2ccccc2C1=O)c1ccncc1`, the intrinsic clearance, human liver microsomes was found to be 13.6 mL/min/kg and the intrinsic clearance, rat liver microsomes was determined as 240 mL/min/kg.

For `CC(C)NC(=O)C1(Cc2ccccc2-c2ccncc2)CCOCC1`, the MDR1-MDCK efflux ratio worked out at 51.7; the intrinsic clearance, human liver microsomes is 269 mL/min/kg; the intrinsic clearance, rat liver microsomes stood at 981 mL/min/kg.

Take `CCN1CCC(Oc2ncnc3c2c(C)c(C)n3C2CCCCC2)CC1`: the intrinsic clearance, human liver microsomes turned out to be 31.7 mL/min/kg and the intrinsic clearance, rat liver microsomes was determined as 725 mL/min/kg.

As for `Cc1cc(C)nc(NC(=O)N(C)C2CCC2)c1`, the MDR1-MDCK efflux ratio was determined as 0.503; the intrinsic clearance, human liver microsomes amounted to 92.6 mL/min/kg; the intrinsic clearance, rat liver microsomes amounted to 177 mL/min/kg; the aqueous solubility stood at 41.2 µg/mL (≈ 177 µM).

Take `Brc1cc2c(cc1Cn1cncn1)OCCCO2`: the MDR1-MDCK efflux ratio worked out at 0.566; the intrinsic clearance, human liver microsomes was 7.7 mL/min/kg; the intrinsic clearance, rat liver microsomes came to 228 mL/min/kg; the aqueous solubility came out at 34.4 µg/mL (≈ 111 µM).

`CNC(=O)c1ccc(-c2nnc(-c3cccc(C)c3)o2)cc1` displayed an aqueous solubility of 0.21 µg/mL (≈ 0.716 µM).

`CN(Cc1ccc(-c2ccc(Br)cc2)o1)C(=O)c1cnn(C)c1` showed an intrinsic clearance, human liver microsomes of 10.5 mL/min/kg; an intrinsic clearance, rat liver microsomes of 134 mL/min/kg; an aqueous solubility of 5.53 µg/mL (≈ 14.8 µM).

`N#Cc1c(O)c(Cl)c(Cl)c(C#N)c1Cl`: the aqueous solubility turned out to be 31.3 µg/mL (≈ 126 µM).

For `Cc1ccncc1-c1ccc(-c2ccn[nH]2)cc1`, the MDR1-MDCK efflux ratio was 0.59; the intrinsic clearance, human liver microsomes came out at 10.5 mL/min/kg; the intrinsic clearance, rat liver microsomes was found to be 65.8 mL/min/kg; the aqueous solubility was determined as 20.5 µg/mL (≈ 87 µM).

In the case of `Cc1ccnc(NC(=O)C2CCN(CCc3cccs3)CC2)c1`, the aqueous solubility turned out to be 65.5 µg/mL (≈ 199 µM).

As to `Cc1ccnc(NCc2cccnc2)n1`, the MDR1-MDCK efflux ratio came to 0.596; the intrinsic clearance, human liver microsomes was not above 4.74 mL/min/kg; the intrinsic clearance, rat liver microsomes came out at 16.5 mL/min/kg.

`CON(C)C(=O)c1cc(C)ccc1NS(C)(=O)=O`: the MDR1-MDCK efflux ratio is 1.52; the intrinsic clearance, human liver microsomes is not above 4.74 mL/min/kg; the intrinsic clearance, rat liver microsomes was not above 10.7 mL/min/kg; the aqueous solubility is 33.3 µg/mL (≈ 122 µM).

For the compound `NCC(=O)Nc1ccc2[nH]c(=O)[nH]c2c1`, the aqueous solubility was found to be 104 µg/mL (≈ 506 µM).

Regarding `CC(=O)NC[C@H]1C[C@]2(C)[C@@H](CCCC[C@]2(C)O)N1CC1(O)CCOCC1`, the MDR1-MDCK efflux ratio was found to be 9.46; the intrinsic clearance, human liver microsomes was found to be 8.98 mL/min/kg; the intrinsic clearance, rat liver microsomes was determined as 41.2 mL/min/kg.

Compound `NC1(c2noc(-c3cccnc3)n2)CCCCCC1` yielded an intrinsic clearance, human liver microsomes not above 4.74 mL/min/kg and an intrinsic clearance, rat liver microsomes of 444 mL/min/kg.

Take `Cc1ccc(C)c(S(=O)(=O)N2CCCN(C3CCC3)CC2)c1`: the MDR1-MDCK efflux ratio is 0.605; the intrinsic clearance, human liver microsomes was 214 mL/min/kg; the intrinsic clearance, rat liver microsomes came to 2150 mL/min/kg; the aqueous solubility is 57.9 µg/mL (≈ 179 µM).

Consider `CCCN1CCn2nc(-c3nc4cc(OC)ccc4[nH]3)cc2C1`, for which the MDR1-MDCK efflux ratio came out at 0.825; the intrinsic clearance, human liver microsomes was not above 4.74 mL/min/kg; the intrinsic clearance, rat liver microsomes came to 280 mL/min/kg; the aqueous solubility worked out at 40.1 µg/mL (≈ 129 µM).

With `O=c1c2sccc2nc2n1CCN(Cc1ccc(F)cc1F)CC2`, the MDR1-MDCK efflux ratio came to 0.519; the intrinsic clearance, human liver microsomes turned out to be 57.9 mL/min/kg; the intrinsic clearance, rat liver microsomes was 1460 mL/min/kg.

As to `CCCNC(=O)C1(NCc2cncnc2)CCCCC1`, the MDR1-MDCK efflux ratio was determined as 7.46; the intrinsic clearance, human liver microsomes came out at 43.2 mL/min/kg; the intrinsic clearance, rat liver microsomes is 127 mL/min/kg.

For the compound `Cc1cc(-c2ccc(N)nc2)cc(C2CCN(C(=O)CCCc3ccc(F)c(C)c3)CC2)n1`, the MDR1-MDCK efflux ratio came to 2.7; the intrinsic clearance, human liver microsomes was found to be 963 mL/min/kg; the intrinsic clearance, rat liver microsomes is 1910 mL/min/kg; the aqueous solubility came out at 8.44 µg/mL (≈ 18.9 µM).

In the case of `Cc1nn(C(F)F)c(C)c1CC(=O)NCCNC(C)(C)C`, the MDR1-MDCK efflux ratio turned out to be 20.6; the intrinsic clearance, human liver microsomes is not above 4.74 mL/min/kg; the intrinsic clearance, rat liver microsomes turned out to be 253 mL/min/kg.

Turning to `O=C(CCc1ccco1)Nc1ccccc1OC(F)F`, the MDR1-MDCK efflux ratio came out at 0.533; the intrinsic clearance, human liver microsomes was 116 mL/min/kg; the intrinsic clearance, rat liver microsomes is 831 mL/min/kg; the aqueous solubility is 44.6 µg/mL (≈ 159 µM).

In the case of `CCc1cc(N(C)Cc2ccc(N)nc2)nc(C)n1`, the MDR1-MDCK efflux ratio came to 1.99; the intrinsic clearance, human liver microsomes was not above 4.74 mL/min/kg; the intrinsic clearance, rat liver microsomes is not above 10.7 mL/min/kg; the aqueous solubility is 36.5 µg/mL (≈ 142 µM).

`N#CCSCC(=O)NC1CCCCCC1`: the MDR1-MDCK efflux ratio was determined as 0.743; the intrinsic clearance, human liver microsomes is not above 4.74 mL/min/kg; the intrinsic clearance, rat liver microsomes is 38.2 mL/min/kg; the aqueous solubility was 44.8 µg/mL (≈ 198 µM).

For `c1ccc(CO[C@@H]2CCC[C@H]2n2cc(-c3nccs3)nn2)cc1`, the MDR1-MDCK efflux ratio was 0.658; the intrinsic clearance, human liver microsomes amounted to 63.2 mL/min/kg; the intrinsic clearance, rat liver microsomes came out at 3020 mL/min/kg; the aqueous solubility stood at 15.7 µg/mL (≈ 48 µM).

The compound `CCOc1cc(-c2nnc(NC(=O)c3cccc(C(F)(F)F)c3)o2)cc(OCC)c1OCC` displayed an intrinsic clearance, human liver microsomes of 7.61 mL/min/kg and an intrinsic clearance, rat liver microsomes of 17.5 mL/min/kg.

As to `Cc1cnc(NCC2(CO)CCCC2)nc1N(C)C`, the MDR1-MDCK efflux ratio came out at 0.95; the intrinsic clearance, human liver microsomes was found to be 29.7 mL/min/kg; the intrinsic clearance, rat liver microsomes is 1050 mL/min/kg.

For the compound `Cc1ccc(S(=O)(=O)N2CCC(c3nnc(-c4cccnc4)o3)C2)cc1` (centres undefined), the MDR1-MDCK efflux ratio turned out to be 2.87; the intrinsic clearance, human liver microsomes is 41.7 mL/min/kg; the intrinsic clearance, rat liver microsomes was found to be 591 mL/min/kg.

Regarding `COc1cccc(Oc2ccc(NC(=O)CN3CCCCC3=O)cn2)c1`, the MDR1-MDCK efflux ratio is 13.6; the intrinsic clearance, human liver microsomes is not above 4.74 mL/min/kg; the intrinsic clearance, rat liver microsomes was found to be 76.8 mL/min/kg.

Turning to `c1ccc(-c2ccc(CN3CCCCCCC3)cc2)cc1`, the MDR1-MDCK efflux ratio was 0.675; the fraction unbound, human plasma came to 0.00243; the intrinsic clearance, human liver microsomes was 39.5 mL/min/kg; the intrinsic clearance, rat liver microsomes is 1530 mL/min/kg. The aqueous solubility worked out at 9.5 µg/mL (≈ 34 µM).

As for `CC(C)c1cc(CN(C)Cc2c[nH]nc2-c2ccc(F)cc2)no1`, the MDR1-MDCK efflux ratio is 1.01; the intrinsic clearance, human liver microsomes amounted to 325 mL/min/kg; the intrinsic clearance, rat liver microsomes stood at 1780 mL/min/kg; the aqueous solubility is 22.2 µg/mL (≈ 67.8 µM).

As for `COc1cc2c(cc1OC)CN(C(=O)C1CCCN(C(=O)c3ccc(Cl)cc3)C1)CC2` (centres undefined), the MDR1-MDCK efflux ratio turned out to be 10.1.

Turning to `Cc1c(Cl)ccc2cc3n(c12)[C@@H](C)CNC3=O`, the MDR1-MDCK efflux ratio was found to be 0.513; the fraction unbound, human plasma is 0.0213; the fraction unbound, rat plasma was 0.0497; the intrinsic clearance, human liver microsomes was found to be 10.8 mL/min/kg. The compound further displayed an intrinsic clearance, rat liver microsomes of 70.4 mL/min/kg and an aqueous solubility of 33.3 µg/mL (≈ 134 µM).

The compound `c1ccc2nc(N3CCC(c4nc5ccccc5[nH]4)CC3)cnc2c1` had an aqueous solubility of 2.4 µg/mL (≈ 7.29 µM).

Turning to `CCc1nc(NC(=O)c2ccccc2F)sc1C`, the MDR1-MDCK efflux ratio came to 0.232; the intrinsic clearance, human liver microsomes was determined as 26 mL/min/kg; the intrinsic clearance, rat liver microsomes was 146 mL/min/kg; the aqueous solubility came to 23 µg/mL (≈ 87.1 µM).

Consider `Cc1noc(C)c1CSC(=N)N1CCOCC1`, for which the MDR1-MDCK efflux ratio was 1.21; the intrinsic clearance, human liver microsomes is not above 4.74 mL/min/kg; the intrinsic clearance, rat liver microsomes is not above 10.7 mL/min/kg.

For `Cc1ccc(C(=O)NCCc2ccc(F)cc2)o1`, the MDR1-MDCK efflux ratio was 0.511; the intrinsic clearance, human liver microsomes worked out at 22 mL/min/kg; the intrinsic clearance, rat liver microsomes came to 140 mL/min/kg.

With `Cc1nc(C)c(C(=O)Nc2ccc3ncccc3c2)o1`, the intrinsic clearance, human liver microsomes worked out at 13.4 mL/min/kg and the intrinsic clearance, rat liver microsomes was found to be 34.8 mL/min/kg.

With `CC(c1nnc(-c2cccs2)o1)N1CCC(n2c(=O)[nH]c3ccccc32)CC1` (centres undefined), the MDR1-MDCK efflux ratio is 21.1; the intrinsic clearance, human liver microsomes was determined as 18.1 mL/min/kg; the intrinsic clearance, rat liver microsomes amounted to 273 mL/min/kg; the aqueous solubility is 56.9 µg/mL (≈ 144 µM).

With `CC(C)NCC(O)COc1cccc2ccccc12` (centres undefined), the fraction unbound, rat plasma was found to be 0.223.

In the case of `COc1ccc(-c2nc(NC(C)C)ncc2-c2ncc[nH]2)cc1`, the MDR1-MDCK efflux ratio was 6.39; the intrinsic clearance, human liver microsomes stood at 26.8 mL/min/kg; the intrinsic clearance, rat liver microsomes is 1160 mL/min/kg.

Turning to `CCN(c1ccccc1)S(=O)(=O)c1ccc(C(=O)Nc2ccccc2C(C)=O)cc1`, the MDR1-MDCK efflux ratio amounted to 1.18 and the aqueous solubility was determined as 0.45 µg/mL (≈ 1.07 µM).

Turning to `NC(=O)c1cnc(NC2CC2)nc1CCNC(=O)C1(c2cccc(F)c2)CCOCC1`, the MDR1-MDCK efflux ratio stood at 32.6; the intrinsic clearance, human liver microsomes stood at 37.7 mL/min/kg; the intrinsic clearance, rat liver microsomes came to 88.6 mL/min/kg; the aqueous solubility was 77.3 µg/mL (≈ 181 µM).

Turning to `Cc1cc(C)n(C(=O)CCCC(=O)n2nc(C)cc2C)n1`, the intrinsic clearance, human liver microsomes worked out at 609 mL/min/kg and the intrinsic clearance, rat liver microsomes came to 2340 mL/min/kg.
